Where no end group is shown, it is not given here.
Tests used:
[1] = tested on: DNA packaged in HSV-1 virion; experiment: SAXS of HSV-1 virions with added compound; settings: HSV-1 virions in TM-buffer, 37°C
Description: In the third SAXS screening step, we added the selected compounds to whole virions (enveloped capsids) in TM-buffer to verify that the compounds penetrate the lipid envelope, tegument protein layer, and capsid wall. […] Both C-capsids and virions have a well-resolved X-ray scattering peak corresponding to diffraction from packaged DNA[60] used for ds determination. […] During HSV-1 replication, it takes approximately 1 h for HSV-1 to adsorb to a cell surface and an additional 2–4 h for viral capsids to be transported, once fused with a cell membrane, to a cell nucleus where DNA is ejected from capsids. [HSV-1 replication dynamics in cell culture were verified separately and were also verified elsewhere[41]]. […] Compound concentrations in this SAXS measurements of virions were the same as in the SAXS measurements of C-capsids above, with virion concentration of 10^13 pfu/mL.
Vero cells were infected with an HSV-1 KOS strain overnight (21 h at 37°C) at a MOI of 0.1 PFU per cell. […] The concentrations of the compounds added to induce DNA condensation were calculated as described above.
All SAXS measurements of viral capsids were conducted at a concentration of 10^13 viral particles per mL (the highest technically achievable capsid concentration). […] Samples were measured in the temperature range of 15–37°C, and the sample temperature was controlled with a Peltier device with ± 0.5°C accuracy. […]

[2] = tested on: GFP-labeled HSV-1 virions; experiment: Binding of GFP-HSV-1 virions to the cell surface (confocal FM); assay type: cell-based; settings: compound added to cell culture, then GFP-labeled HSV-1 virions
Description: This likely occurs due to compounds’ high positive charge leading to electrostatic binding of polycations to negatively charged glycoprotein receptors on the cell membrane, such as heparansulfate proteoglycans (HSPG)[75]. Optimizing compound permeability into cells can be facilitated by e.g. prodrug approach, lipid vesicle delivery, and nanoparticle delivery, as well as other pathways. Compound permeability will be optimized in the future. […] Furthermore, choosing a reconstituted nuclei system for the MOA-assay (as opposed to infecting a cell culture) provides the benefit of isolating the effect of the compound on the single step of viral DNA ejection while avoiding interference from other processes occurring within the cell during viral replication.
Vero cell monolayers grown on chamber slides (Lab-Tek) were infected with a GFP-expressing HSV-1(K26GFP) at a MOI of 0.1 PFU per cell. Vero cells were also incubated with the same virus that was previously treated with different concentrations of the compounds to condense the viral DNA. The concentration of the compounds was calculated as described above. […]
Supplementary file ppat.1008604.s003.pdf: S2 Fig Effect of the compounds on the binding of HSV-1 virions to the cell surface during infection. […] Cells were fixed at 2 hpi and assessed by the presence of a GFP virus signal (green). […]

| Molecule | DNA-DNA interaxial spacing ds [1] | virus adsorption to the cell [2] |
| --- | --- | --- |
| RRRRR [Arg^5+] | below 31 Å | prevents virus adsorption to the cell |
| NCCCN(CCCN)CCCCN(CCCN)CCCN [DAB-Am-4] | below 31 Å | prevents virus adsorption to the cell |
